Experimental data from PubChem BioAssay AID179 (DTP/NCI, 2004).
Where “and” joins values, the source holds several entries; their conditions need not be identical. Equal entries are not always repeated. Calls of active or inactive are those of the source.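 How the source made its calls: active means compounds giving half or more protection of infected cells from virus-caused growth loss, again on retest; inactive means the rest.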

Tested on: CEM cells HIV-1 protection, formazan growth assay
Test: NCI AIDS Antiviral Assay
Conditions: for IC50: measured here: growth of uninfected CEM cells
Summary of the method: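 Category rules: moderately active means at least 50% protection on retest, and confirmed active means 100% protection reproducibly. The underlying data came from a formazan growth assay in HIV-1-infected CEM cells.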

Row | Structure (SMILES) | EC50 | IC50 | outcome
1 | NC1(S(=O)(=O)O)c2ccccc2-c2ccccc21 | > 200 µM | 151 µM | 
2 | COC(=O)CCC(=O)CC(=O)C1=NS(=O)(=O)c2nc(S(N)(=O)=O)c(Cl)cc2N1 | 0.38 µM | 550 µM | 
3 | N#CC(C#N)=C/C=C/c1c(Cl)cccc1Cl | > 200 µM | 2.57 µM | 
4 | CS(=O)(=O)OCCN1CCN(C(=O)c2cccc3c(Nc4ccc(S(N)(=O)=O)cc4)c4ccccc4nc23)CC1 | > 51.3 µM | > 51.3 µM | 
5 | O=C(S)C(=O)Cc1nnn(-c2ccccc2)c1-c1ccccc1 | > 245 µM | > 245 µM | 
6 | O=C(CC(c1ccccc1)c1ccccc1)NCCCCN1CCCCCCC1 | > 200 µM | 12.9 µM | 
7 | COc1ccc(/C=N/n2cnc3c(sc(=S)n3-c3ccccc3)c2=O)cc1 | > 6.92 µM | > 6.92 µM | 
8 | Nc1ccc(C(=O)NN2C(=O)C(Cl)C2c2cc(Br)ccc2O)cc1 (stereo not drawn) | > 200 µM | 30.9 µM | 
9 | CNCc1cc(OC)ccc1-c1ccc(OC)c(OC)c1OC | > 708 µM | 105 µM | 
10 | O=c1ccn(C2OC(CO)C(O)C2F)c(=O)n1Cc1ccccc1 (stereo not drawn) | > 200 µM | > 200 µM | 
11 | CCN(CC)C(=S)Nc1ccc(-c2cc3ccc(O)cc3oc2=O)cc1 | > 200 µM | 14.1 µM | 
12 | Cc1ccc(C2SCC(=O)N2c2ccc(-n3c(-c4ccccc4)nc4ccccc4c3=O)cc2)cc1 (stereo not drawn) | > 200 µM | 10.7 µM | 
13 | CCCNC(C#N)c1ccc(OCCCCCCCCCCOc2ccc(C(C#N)NCCC)cc2)cc1 (stereo not drawn) | > 200 µM | 11 µM | 
14 | O=S(=O)(O)c1cccc(N=Nc2cc(S(=O)(=O)O)c3cccnc3c2O)c1 | > 550 µM | > 550 µM | 
15 | CCOC(=O)C(C(=O)OCC)=C1SC(=Nc2ccccc2)C(=Nc2ccccc2)N1c1ccccc1 | > 200 µM | 70.8 µM | 
16 | Cc1ccc(Nc2sc(C)cc2C#N)c([N+](=O)[O-])c1 | > 200 µM | 178 µM | 
17 | CC(=O)O[C@]12CCCCCC1C1(O)C(O)CCCC[C@H]12 (stereo partly drawn) | > 200 µM | > 200 µM | 
18 | Cc1ccc(C)c(NC(=O)CC2Sc3ccccc3NC2=O)c1 (stereo not drawn) | > 30.2 µM | > 30.2 µM | 
19 | CC(C(=O)OCc1ccccc1)(c1ccco1)N1C(=O)OC(c2ccccc2)C1c1ccccc1 (stereo not drawn) | > 200 µM | 13.5 µM | 
20 | Cc1ccc(Nc2nc(C)c(C(=O)C/C(=N\NC(N)=S)C(=O)Nc3ccc(Cl)cc3C)s2)cc1 | > 200 µM | > 200 µM | 
21 | C[C@]12CCC(=O)C(OC(=O)c3ccc([N+](=O)[O-])cc3)=C1CCC2=O |  |  | inactive

Row | Structure (SMILES) | EC50 | IC50 | outcome
22 | COC(=O)C1C(=O)C(C(=O)OC)C2C(C(=O)OC)C(=O)C(C(=O)OC)C12 (stereo not drawn) | 166 µM | 355 µM | 
23 | COc1cccc(N2CCc3c(C)c(C#N)c4nc5ccccc5n4c32)c1 | > 100 µM | > 100 µM | 
24 | CSCCCNC(=O)c1csc(-c2csc(CCNC(=O)CNC(=O)OC(C)(C)C)n2)n1 | > 501 µM | 234 µM | 
25 | CCOC(=O)Oc1c(Cl)cc(C(=CCC[C@H]2CC[C@@]3(C)[C@@H](CC[C@@H]4[C@@H]3CC[C@]3(C)[C@@H](C(C)CCCC(C)C)CC[C@@H]43)C2)c2cc(Cl)c(OC(=O)OCC)c(C(=O)OCC)c2)cc1C(=O)OCC (stereo partly drawn) |  |  | inactive
26 | O=C1Nc2ccc([N+](=O)[O-])c3c([N+](=O)[O-])ccc1c23 | > 200 µM | 1.02 µM | 
27 | CCOC(=O)CCC1(C)OCC(COC)O1 (stereo not drawn) | > 200 µM | > 200 µM | 
28 | CC(/C=N/N(C)C1=NCCCN1)=N/N(C)C1=NCCCN1 | > 200 µM | > 200 µM | 
29 | CN1C=Nc2c(ncn2C2CCC(CO)O2)C1O (stereo not drawn) | > 200 µM | > 200 µM | 
30 | Cc1[nH]nc2c1C(=O)C=C(N(CCO)c1ccccc1)C2=O |  |  | inactive
31 | CC1(C)C=C(N2CCN(C3=CC(C)(C)NC(C)(C)C3)CC2)CC(C)(C)N1 | > 182 µM | > 182 µM | 
32 | CN1CCc2cc3c4cc2C1Cc1ccc(cc1)Oc1cc(ccc1O)CC1c2c(cc(O)c(c2O4)O3)CCN1C (stereo not drawn) |  |  | inactive
33 | O=C1/C(=C/c2ccc(Cl)cc2)Oc2cc(O)ccc21 | > 200 µM | 37.2 µM | 
34 | CC(C)CCC[C@@H](C)C1CCC2[C@@H]3CC(OS(=O)(=O)O)C4C[C@@H](OC5OC(CO)C(O)C(O)C5O)CC[C@]4(C)C3CC[C@@]21C (stereo partly drawn) | > 37.2 µM | 6.03 µM | 
35 | Cn1c(=O)c2c(ncn2Cc2ccc(O)c([N+](=O)[O-])c2)n(C)c1=O | > 200 µM | > 100 µM | 
36 | CCCCCCCCCCCCCCCCC(C(=O)O)S(=O)(=O)O (stereo not drawn) | > 200 µM | 112 µM | 
37 | CC1=N/C(=C\c2ccc(C#N)cc2)C(=O)O1 | > 123 µM | > 123 µM | 
38 | O=C(NN(C(=O)c1ccc([N+](=O)[O-])cc1)c1ccccc1)c1ccc([N+](=O)[O-])cc1 | > 200 µM | 36.3 µM | 
39 | CCc1cc2c(c3c1CCCC3=O)CC1(Cc3ccc(C(=O)OC)cc3C1)C2 (stereo not drawn) | > 200 µM | 36.3 µM | 
40 | CCOP(=O)(CCn1cc(C)c(=O)[nH]c1=O)OCC | > 871 µM | > 871 µM | 
41 | CCCCN(CCCC)/N=C/c1c2c(O)c3c(O)c(C)c4c(c3c1O)C(=O)C(C)(O/C=C/C(OC)C(C)C(OC(C)=O)C(C)C(O)C(C)C(O)C(C)/C=C/C=C(C)C(=O)N2)O4 (stereo not drawn) | > 200 µM | 9.12 µM | 
42 | CC(C)(C)C1CCC(N=C(N)CSS(=O)(=O)O)CC1 (stereo not drawn) | > 200 µM | 24 µM | 

Row | Structure (SMILES) | EC50 | IC50 | outcome
43 | Cc1ccc(-n2c(=S)n(-c3ccccc3C)c3nc4ccccc4nc2/c3=N\Nc2ccccc2)cc1 | > 200 µM | 123 µM | 
44 | CC(=O)Nc1cc2nc3n(c2cc1C)CCC3OC(C)=O (stereo not drawn) | > 200 µM | > 200 µM | 
45 | c1cc2cc(Cc3ccc4[nH]ccc4c3)ccc2[nH]1 | > 200 µM | 30.9 µM | 
46 | COc1cc2c(cc1OC)C/C(=N\O)c1cc(OC)c(OC)cc1/C=C\2 | > 200 µM | 1.74 µM | 
47 | CC(=O)N1C(=O)C2(Nc3cccnc3N2)c2ccccc21 (stereo not drawn) | > 100 µM | > 100 µM | 
48 | ClCC1(CCl)COC1 | > 1620 µM | > 1620 µM | 
49 | COc1cc(Cc2ccc3c(c2C#N)N(C)c2ccccc2S3)cc(OC)c1OC | > 200 µM | 3.63 µM | 
50 | O=C(CNN1C(=O)CSC1=Nc1cccc2ccccc12)c1cccc2c1Nc1ccccc1S2 |  |  | inactive
51 | C1=CCCC=CCC1.C[PH+](C)C.C[PH+](C)C.C[PH+](C)C.[Cl-].[Ir] |  |  | inactive
52 | C#CCCOC(=O)CC1=C(C)/C(=C/c2ccc(S(C)=O)cc2)c2ccc(F)cc21 (stereo not drawn) | > 200 µM | 14.8 µM | 
53 | COc1ccc(N=C2SCC(=O)N2NC(=O)CN2C(=O)c3ccccc3C2=O)cc1 | > 20.4 µM | 17.4 µM | 
54 | O=[N+]([O-])c1ccc(S(=O)(=O)N=Ic2ccccc2)cc1 | > 200 µM | > 200 µM | 
55 | CCOC(=O)[C@H]1Nc2ccc([N+](=O)[O-])cc2C2c3ccccc3CC21 (stereo partly drawn) | > 11.2 µM | > 11.2 µM | 
56 | C=CCn1c(-c2ccccc2)nn(CC(=O)Nn2c(C)nc3ccccc3c2=O)c1=S |  |  | inactive
57 | COc1cccc2c1C(=O)c1c(O)c3c(c(O)c1C2=O)C[C@@](O)(C(=O)CO)C[C@@H]3OC1CC(N)C(O)C(C)O1 (stereo partly drawn) | > 2.51 µM |  | 
58 | CSc1cc(-c2ccccn2)nc(-c2ccccn2)c1.CSc1cc(-c2ccccn2)nc(-c2ccccn2)c1.[Cu+2].[O-][Cl+3]([O-])([O-])[O-] | > 200 µM | 0.0631 µM | 
59 | CSCCCNC(=O)[C@H](CSC)NC(=O)c1csc(CCNC(=O)[C@@H](NSc2ccccc2[N+](=O)[O-])C(C)O)n1 (stereo partly drawn) | > 57.5 µM | > 57.5 µM | 
60 | Cc1ccc(/C=C2\N=C(N3CCOCC3)NC2=O)cc1 | > 200 µM | > 200 µM | 
61 | Clc1ccc(-c2cc[s+]s2)cc1 | > 200 µM | 33.1 µM | 
62 | N#Cc1cc([N+](=O)[O-])ccc1NC(=O)C(=O)C(C(=O)/C=C/c1ccccc1)C1OC(=O)c2ccccc21 (stereo not drawn) | > 191 µM | > 191 µM | 
63 | Nc1ccc2c(c1)NC(=O)[C@@H]1CCCN1C2=O | > 200 µM | > 200 µM | 

Row | Structure (SMILES) | EC50 | IC50 | outcome
64 | CCCCCCCCCCCCC1=C(OC)C(=O)c2ccc(C)nc2C1=O |  |  | inactive
65 | c1ccc(CSSCc2ccccc2)cc1 |  |  | inactive
66 | N#Cc1ccc(OCc2ccc3nc(-c4ccccc4)c(Cl)nc3c2)cc1 | > 100 µM | > 100 µM | 
67 | CC1(C)OP(=O)(c2ccccc2)C=C1Sc1ccc([N+](=O)[O-])cc1[N+](=O)[O-] (stereo not drawn) | 44.7 µM | 105 µM | 
68 | CCOC(=O)C(CC(C)C)NC(=O)c1cc(SC#N)c(C)c2c1Nc1c(c(C)c3oc(=O)c(C)nc3c1C(=O)NC(CC(C)C)C(=O)OCC)O2 (stereo not drawn) | > 5.01 µM | > 5.01 µM | 
69 | Cc1cc2cc3n(c2nn1)N=C(Cl)CC3 | > 339 µM | 6.31 µM | 
70 | CN1C(=O)C2CSCN2C1=S (stereo not drawn) | > 955 µM | 316 µM | 
71 | Cn1c(/C=N/NC(=O)c2ccc(C(=O)N/N=C/c3c[n+]4ccccc4n3C)cc2)c[n+]2ccccc12 | 35.5 µM | 43.7 µM | 
72 | CC(=O)NC1=C(C)C(=O)c2c(nc3n2CCC3OC(=O)c2ccccc2)C1=N (stereo not drawn) | > 200 µM | 0.912 µM | 
73 | CC#CC(=O)Nc1ccccc1CC(c1c[nH]c2ccccc12)c1c[nH]c2ccccc12 | > 35.5 µM | 19.1 µM | 
74 | N#Cc1nc(NC(=O)c2ccccc2C(=O)O)c(C#N)[nH]1 | > 200 µM | > 200 µM | 
75 | O=c1c2cc([N+](=O)[O-])ccc2n2n1Cc1ccccc1CC2 | > 200 µM | > 200 µM | 
76 | COC(=O)[C@@H]1OC(C)(c2ccccc2)O[C@H]1C(=O)OC | > 200 µM | > 200 µM | 
77 | CCCCN=C(N)N=C(N)N | > 200 µM | 93.3 µM | 
78 | CCCCc1ccc(Nc2nc(Cl)c3[nH]cnc3n2)cc1 | > 200 µM | 26.3 µM | 
79 | Cc1ccc(S(=O)(=O)N/N=C2\C3CC4CC(C3)C2C4)cc1 (stereo not drawn) | > 200 µM | 95.5 µM | 
80 | O=C(CC(=O)Nc1cccc(C(=O)O)c1)Nc1cccc(C(=O)O)c1 | > 200 µM | > 200 µM | 
81 | CCOC(=O)c1c(N)sc(C)c1C | > 200 µM | 117 µM | 
82 | O=C(Nc1cccc(C(F)(F)F)c1)O/N=C(/Cl)CCl | > 200 µM | 33.9 µM | 
83 | CC[n+]1c(-c2ccccc2)c2cc(N)ccc2c2ccc(N)cc21 | > 708 µM | 0.794 µM and 0.525 µM | 
84 | O=C1NC(=O)C(COCc2ccccc2)C2=C1SCCC2 (stereo not drawn) | > 200 µM | > 200 µM | 
